The record followed here is patent US5166214A, “Use of imidazoles for the treatment of atherosclerosis” (priority 1990, dated 1992).

In assay [1] the test system is murine macrophage-like cell line J774.A1. Description: Inhibition of cholesterol esterification in mammalian cells (macrophage assay). The assay is classed as cell-based. The following applies: J774.A1 macrophages loaded with ac-LDL, 14C-oleic acid; read-out: Cholesterol Esterification IC50. As for the experimental part:
B. Assay of the Inhibition of Cholesterol Esterification in Mammalian Cells
The esterification of cholesterol was determined in the murine macrophage-like cell line J774.A1. Cells were seeded in 35 mm wells at a density of 300,000 cells per well in 2 mls of Dulbecco's Eagle Medium (DMEM) supplemented with 10% fetal bovine serum (FBS). Cells were incubated at 37° C. in an atmosphere of 5% CO2 and 93% humidity. After 24 hours the media was changed to 0.68 mls 10% FBS-DMEM containing 34 μg of acetylated human low density lipoprotein (ac-LDL) to increase the intracellular concentration of cholesterol and promote esterification. At 41 hours, various inhibitors were added to the cells in DMSO (10 μl/ml maximum). At 43 hours, the cells were pulsed with 0.1 mM ^14 C-oleic acid (10,000 dpm/nmol) complexed with BSA (bovine serum albumin) to follow cholesterol ester formation. The experiment was terminated at 45 hours by washing the monolayers 3 times with 3 ml of Tris-buffered saline at 4° C. The lipids were extracted by incubating the monolayers with 1.5 ml of hexane:isopropanol (3:2, v/v) for 30 min. under gentle agitation. During this period, 10,000 dpm 3H-cholesteryl linoleate and 10 μg of cholesteryl oleate were added as an internal standard and carrier respectively. The organic solvent was removed and the cells were washed with an additional 1.0 ml of hexane: isopropanol which was combined with the original extract. The cells were allowed to dry overnight, digested with 1.5 ml of 0.2N sodium hydroxide for 1 hour and an aliquot of the solubilized protein used for protein determination using the Lowry method. The organic extract was taken to dryness, the residue resuspended in 100 μl of chloroform and the lipids separated on silica gel impregnated glass fiber plates using a hexane:diethylether:acetic acid (170:30:1, v/v/v) solvent system. Individual lipids were visualized with iodine and the cholesteryl ester spot cut out and transferred to scintillation vials to determine the amount of radioactivity. The conversion of oleic acid to cholesteryl ester in the control averaged 0.54 […] and was increased upon the addition of ac-LDL to about 10.69±0.69 […]. […] It should be noted that many of the intermediates had inhibitory activity in the in vitro ACAT assay and in the macrophage assay.

Assay [2] has as its target T1, Acyl-CoA: Cholesterol Acyltransferase (ACAT) (Rattus norvegicus, UniProt Q7TQM4).
T1 construct: Microsomes were obtained by differential centrifugation; from tissue; host or cells: liver microsomes of male Sprague Dawley rats
T1 sequence (Q7TQM4 1-524): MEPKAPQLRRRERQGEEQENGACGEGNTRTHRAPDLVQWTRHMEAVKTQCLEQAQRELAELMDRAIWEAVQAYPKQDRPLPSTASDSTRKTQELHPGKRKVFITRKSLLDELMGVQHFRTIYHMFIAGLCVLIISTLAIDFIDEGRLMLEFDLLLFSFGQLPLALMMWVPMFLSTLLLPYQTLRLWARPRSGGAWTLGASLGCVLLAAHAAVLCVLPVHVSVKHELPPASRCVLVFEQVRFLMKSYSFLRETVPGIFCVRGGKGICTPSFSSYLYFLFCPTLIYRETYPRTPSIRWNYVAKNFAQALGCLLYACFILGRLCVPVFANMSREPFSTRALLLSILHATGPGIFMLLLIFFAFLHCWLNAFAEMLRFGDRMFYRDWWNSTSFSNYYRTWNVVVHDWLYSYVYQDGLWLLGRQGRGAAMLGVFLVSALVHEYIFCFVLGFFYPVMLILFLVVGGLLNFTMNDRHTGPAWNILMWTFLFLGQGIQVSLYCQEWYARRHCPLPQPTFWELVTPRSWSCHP
Description: Inhibition of acyl-CoA: cholesterol acyltransferase (ACAT) in hepatic microsomes (in vitro). The assay is classed as biochemical, rat (male Sprague Dawley). Conditions: rat hepatic microsomes, 75 μM 14C-oleoyl-CoA, pH 7.4, 37° C.; read-out: In Vitro ACAT IC50. Here is the method: A. Assay of the Inhibition of Acyl-CoA: Cholesterol Acyltransferase (ACAT) in Hepatic Microsomes
The ability of the compounds to inhibit ACAT, the enzyme responsible for the intracellular synthesis of cholesteryl esters, was tested as follows. Male Sprague Dawley rats weighing 150-300 g, were fed rat chow ad libitum. The animals were fasted for twenty-four hours prior to being sacrificed by decapitation. The livers were perfused in situ with 50 ml of cold 0.25M sucrose, excised, and homogenized in three volumes of 0.1M phosphate buffer, pH 7.4, that contained 0.5 mM EDTA (ethylenediaminetetraacetic acid), 1.0 mM glutathione, 0.25M sucrose and […]. Microsomes were obtained by differential centrifugation; the supernatant from an initial spin at 15,000×g for 15 minutes was centrifuged at 105,000×g for 1 hour to pellet the microsomes. The microsomes were suspended in homogenization buffer, reisolated by centrifugation, and stored at -70° C. Microsomes were used within one month of preparation.
The control assay in a final volume of 200 μl consisted of 200 μg of microsomal protein, 75 μM ^14 C-oleoyl-CoA (10,000 dpm/nmol) in 0.1M phosphate, pH 7.4, that contained 1 mM glutathione. Compounds were added in 5 μl of DMSO (dimethyl sulfoxide) and additional controls were run with DMSO only. All components, except the oleoyl-CoA, were preincubated for 15 min. at 37° C. prior to the initiation of the reaction by the addition of oleoyl-CoA. The assay was terminated after 10 min by the addition of 4 ml of chloroform:methanol (2:1, v/v). 20,000 dpm of ^3 H-cholesteryl oleate and 10 μg of unlabeled cholesteryl oleate and oleic acid were added as an internal standard and carriers, respectively. After allowing 10 min. for lipid extraction, the samples were centrifuged at 1,000×g for 10 min. to separate the solvent layers. The chloroform layer containing the neutral lipids was spotted onto a Baker SI250-Pa silica gel TLC plate and the plate developed using a hexane: diethyl ether: acetic acid (170:30:1 v/v/v) mobile phase. The lipids were visualized by their interaction with iodine vapor and the cholesteryl ester spot was scraped into a scintillation vial and counted.

With `CCCCCCCN(CCCCCSc1nc(CCC)c(CCC)[nH]1)C(=O)Nc1ccc(F)cc1F` [Example 193, N'-(2,4-difluorophenyl)-N-[5-(4,5-dipropyl-1H-imidazol-2-ylthio)pentyl]-N-heptylurea], the IC50 in assay [1] is 2700 nM; in assay [2], 60 nM.

With `CCCCCCCN(CCCCCSc1nc(-c2ccccn2)c(-c2ccccn2)[nH]1)C(=O)Nc1ccc(F)cc1F` [Example 194], the IC50 in assay [1] came out at 4100 nM; in assay [2], 1900 nM.

As to `CCCCCCCN(CCCCCSc1nc(-c2cccc(OC)c2)c(-c2cccc(OC)c2)[nH]1)C(=O)Nc1ccc(F)cc1F` [Example 195, N-[5-[4,5-bis(3-methoxyphenyl)-1H-imidazol-2-ylthio]pentyl]-N'-(2,4-difluorophenyl)-N-heptylurea], the half-maximal inhibitory concentration (IC50) was determined as 400 nM in assay [1] and 40 nM in assay [2].

With `CCCCCCCN(CCCCCSc1nc(-c2ccccc2OC)c(-c2ccccc2OC)[nH]1)C(=O)Nc1ccc(F)cc1F` [Example 196, N-[5-[4,5-bis(2-methoxyphenyl)-1H-imidazol-2-ylthio]pentyl]-N'-(2,4-difluorophenyl)-N-heptylurea], the IC50 came to 1400 nM in assay [1] and 300 nM in assay [2].

As for `CCCCCCCN(CCCCCSc1nc(-c2ccc(N(C)C)cc2)c(-c2ccc(N(C)C)cc2)[nH]1)C(=O)Nc1ccc(F)cc1F` [Example 197, N-[5-[4,5-bis[4-(dimethylamino)phenyl]-1H-imidazol-2-ylthio]pentyl]-N'-(2,4-difluorophenyl)-N-heptylurea], the results for the IC50 in assay [1] and in assay [2] were 100 nM and 119 nM, respectively.

In the case of `CCCCCCCN(CCCCCSc1nc(-c2ccc(N(C)C)cc2)c(-c2ccc(N(C)C)cc2)[nH]1)C(=O)Nc1ccc(F)cc1F` [Example 198], the figures for the IC50 in assay [1] and in assay [2] were 60 nM and 40 nM, respectively.

As to `CCCCCCCN(CCCCCSc1nc(C2CCCCC2)c(C2CCCCC2)[nH]1)C(=O)Nc1ccc(F)cc1F` [Example 199, N-[5-(4,5-dicyclohexyl-1H-imidazol-2-ylthio)pentyl]-N'-(2,4-difluorophenyl)-N-heptylurea], the half-maximal inhibitory concentration (IC50) in assay [1] was determined as 600 nM; in assay [2], 20 nM.

In the case of `CCCCCCCN(CCCCCSc1nc(-c2ccccc2)c(-c2ccc(N(C)C)cc2)[nH]1)C(=O)Nc1ccc(F)cc1F` [Example 200], the IC50 came to 800 nM in assay [1] and 710 nM in assay [2].

For `CCCCCCCN(CCCCCSc1nc(-c2ccco2)c(-c2ccco2)[nH]1)C(=O)Nc1ccc(F)cc1F` [Example 201], the IC50 in assay [1] was 500 nM; in assay [2], 200 nM.

As to `CCCCCCCN(CCCCCSc1nc(-c2ccc(OC)cc2)c(-c2ccc(OC)cc2)[nH]1)C(=O)NC(C)C` [Example 202, N-[5-[4,5-bis(4-methoxyphenyl)-1H-imidazol-2-ylthio]pentyl]-N-heptyl-N'-(1-methylethyl)urea], the half-inhibitory concentration (IC50) turned out to be 4 nM in assay [1] and 220 nM in assay [2].

In the case of `COc1ccc(-c2nc(SCCCCCN(C)C(=O)Nc3ccc(F)cc3F)[nH]c2-c2ccc(OC)cc2)cc1` [Example 204], the concentration for half-maximal inhibition (IC50) worked out at 400 nM in assay [1] and 500 nM in assay [2].

Take `CCCCCCCN(CCCCCSc1nc(-c2ccc(N(C)C)cc2)c(-c2ccc(N(C)C)cc2)[nH]1)C(=O)NC(C)C` [Example 205, N-[5-[4,5-bis[4-(dimethylamino)phenyl]-1H-imidazol-2-ylthio]pentyl]-N-heptyl-N'-(1-methylethyl)urea]: the half-inhibitory concentration (IC50) in assay [1] was 3 nM; in assay [2], 74 nM.

In the case of `CCCCCCCCNC(=O)N(CCCCCSc1nc(-c2ccccc2)c(-c2ccccc2)[nH]1)c1ccccc1` [Example 207, N-[5-(4,5-diphenyl-1H-imidazol-2-ylthio)pentyl]-N'-octyl-N-phenylurea], the values for the IC50 in assay [1] and in assay [2] were 600 nM and 9 nM, respectively.

In the case of `CCCCCCCN(CCCCCSc1nc(-c2ccc(O)cc2)c(-c2ccc(O)cc2)[nH]1)C(=O)Nc1ccc(F)cc1F` [Example 209, N-[5-[4,5-bis(4-hydroxyphenyl)-1H-imidazol-2-ylthio]pentyl]-N'-(2,4-difluorophenyl)-N-heptylurea], the figures for the IC50 in assay [1] and in assay [2] were 4800 nM and 1400 nM, respectively.

In the case of `CCCCCCCN(CCCCCSc1nc(C(C)C)c(C(C)C)[nH]1)C(=O)NC(C)C` [Example 210], the half-inhibitory concentration (IC50) stood at 800 nM in assay [1] and 17 nM in assay [2].

With `CCCCCCCN(CCCCCSc1nc2c([nH]1)-c1ccccc1OCOc1ccccc1-2)C(=O)Nc1ccc(F)cc1F` [Example 211, N-[5-(1H,9H-dibenz[4,5:8,9][1,3]dioxonino[6,7-d]imidazol-2-ylthio)-pentyl]-N'-(2,4-difluorophenyl)-N-heptylurea], the IC50 in assay [1] is 700 nM; in assay [2], 32 nM.

Regarding `CCCCCCCN(CCCCCSc1nc2c([nH]1)-c1ccccc1Oc1ccccc1-2)C(=O)Nc1ccc(F)cc1F` [Example 212, N-[5-(1H-dibenz[2,3:6,7]oxedino[4,5-d]imidazol-2-ylthio)pentyl]-N'-(2,4-difluorophenyl)-N-heptylurea], the 50% inhibitory concentration (IC50) in assay [1] was 1700 nM; in assay [2] it was 60 nM.

On to `CCCCCCCN(CCCCCSc1nc(-c2ccc(C(F)(F)F)cc2)c(-c2ccc(C(F)(F)F)cc2)[nH]1)C(=O)Nc1ccc(F)cc1F` [Example 258], for which the values for the IC50 in assay [1] and in assay [2] were 25000 nM and 40000 nM, respectively.

`CCCCCCCN(CCCCCSc1nc(-c2ccccc2)c(-c2ccccc2)[nH]1)C(=S)NCCC` [Example 299, N-[5-(4,5-diphenyl-1H-imidazol-2-ylthio)pentyl]-N-heptyl-N'-propylthiourea]: the IC50 in assay [1] was 1200 nM; in assay [2] it was 140 nM.

In the case of `CCCCCCCN(CCCCCSc1nc(-c2ccccc2)c(-c2ccccc2)[nH]1)C(=S)Nc1cccc(F)c1` [Example 300, N-[5-(4,5-diphenyl-1H-imidazol-2-ylthio)pentyl]-N'-(3-fluorophenyl)-N-heptylthiourea], the half-maximal inhibitory concentration (IC50) in assay [1] was determined as 900 nM; in assay [2] it was 130 nM.

As to `CCCCCCCN(CCCCCSc1nc(-c2ccccc2)c(-c2ccccc2)[nH]1)C(=O)CCC` [Example 341, N-[5-(4,5-diphenyl-1H-imidazol-2-ylthio)pentyl]-N-heptylbutanamide], the figures for the half-inhibitory concentration (IC50) in assay [1] and in assay [2] were 100 nM and 3 nM, respectively.
